What was measured:
B16/F1 melanoma = experiment: Biodistribution in B16/F1 melanoma-bearing C57 mice; format: in vivo
Procedure: All the animal studies were conducted in compliance with Institutional Animal Care and Use Committee approval. The mice were housed five animals per cage in sterile micro-isolator cages in a temperature- and humidity-controlled room with a 12-h light/12-h dark schedule. […] C57 mice were subcutaneously inoculated on the right flank with 1×10^6 B16/F1 cells. The weight of tumors reached approximately 0.2 g 10 days post cell inoculation. […] Groups of 5 mice were sacrificed at 0.5, 2, 4 and 24 h post-injection, and tumors and organs of interest were harvested, weighed and counted. Blood values were taken as 6.5% of the whole-body weight. […] The mice were sacrificed at 2 h post-injection. The tumor and organs of interest were harvested, weighed and counted.
All animal studies were conducted in compliance with Institutional Animal Care and Use Committee approval. The pharmacokinetics of ^111In-DOTA-GGNle-CycMSHhex and ^111In-DOTA-GENle-CycMSHhex were determined in B16/F1 melanoma-bearing C57 female mice (Harlan, Indianapolis, Ind.). The C57 mice were subcutaneously inoculated with 1×10^6 B16/F1 cells on the right flank for each mouse to generate B16/F1 melanomas. Ten days post inoculation, the tumor weights reached approximately 0.2 g. Each melanoma-bearing mouse was injected with 0.037 MBq of ^111In-DOTA-GGNle-CycMSHhex or ^111In-DOTA-GENle-CycMSHhex via the tail vein. Groups of 5 mice were sacrificed at 0.5, 2, 4 and 24 h post-injection, and tumors and organs of interest were harvested, weighed and counted. Blood values were taken as 6.5% of the whole-body weight. The specificities of the tumor uptake of ^111In-DOTA-GGNle-CycMSHhex and ^111In-DOTA-GENle-CycMSHhex were determined by co-injecting 10 μg (6.07 nmol) of unlabeled NDP-MSH which is a linear α-MSH peptide analogue with picomolar MC1 receptor binding affinity.

[1] = Metabolites in urine and melanoma by RP-HPLC; format: in vivo, C57 mice; settings: urine, 2 h post-injection
Procedure: The mouse used for the imaging study (2 h post-injection) described above was euthanized and the urine was collected for identifying the metabolites. The urinary sample was centrifuged at 16,000 g for 5 min prior to the HPLC analysis. The radioactive metabolite in the urine was analyzed by injecting aliquots of urine into the HPLC. A 20-minute gradient of 18-28% acetonitrile/20 mM HCl was used for the urine analysis.
Both melanoma and urine were collected from the mouse used for SPECT/CT imaging to analyze the metabolites of ^111In-DOTA-GGNle-CycMSHhex in melanoma and urine. The tumor was homogenized by a VWR homogenizer for 5 mins. Equal volume of ethanol was added into the tumor sample. The tumor sample was vortexed and then centrifuged at 16,000 g for 5 mins. The supernatant was transferred into a glass test tube and purged with N2 gas for 20 mins to remove the ethanol. Aliquots of the supernatant were injected into HPLC. The urinary sample was directly centrifuged at 16,000 g for 5 mins prior to the HPLC analysis. Thereafter, aliquots of the urine were injected into HPLC. The HPLC gradient described above was used for the analyses of metabolites.

[2] = In vitro serum stability in mouse serum; format: in vitro ADME; settings: 37° C., 24 h
Procedure: After the incubation, 10 μL of 0.5% EDTA aqueous solution was added into the reaction vial to scavenge potential unbound ^111In^3+ ions. The radiolabeled peptide was purified to single species by Waters RP-HPLC (Milford, Mass.) on a Grace Vydac C-18 reverse phase analytical column (Deerfield, Ill.) using a 20-minute gradient of 18-28% acetonitrile in 20 mM HCl aqueous solution with a flow rate of 1.0 mL/min. Purified peptide sample was purged with N2 gas for 20 minutes to remove the acetonitrile. The pH of final solution was adjusted to 7.4 with 0.1 N NaOH and sterile normal saline for animal studies.
Briefly, 50 μL of ^111InCl3 (37-74 MBq in 0.05 M HCl aqueous solution), 10 μL of 1 mg/mL peptide aqueous solution and 400 μL of 0.5 M NH4OAc (pH 4.5) were added into a reaction vial and incubated at 75° C. for 45 mins. After the incubation, 10 μL of 0.5% EDTA (ethylenediaminetetraacetic acid) aqueous solution was added into the reaction vial to scavenge potential unbound ^111In^3+ ions. The radiolabeled complexes were purified to single species by Waters RP-HPLC (Milford, Mass.) on a Grace Vydac C-18 reverse phase analytical column (Deerfield, Ill.) using the following gradient at a 1 mL/min flowrate. The mobile phase consisted of solvent A (20 mM HCl aqueous solution) and solvent B (100% CH3CN). The gradient was initiated and kept at 82:18 A/B for 3 mins followed by a linear gradient of 82:18 A/B to 72:28 A/B over 20 mins. Then, the gradient was changed from 72:28 A/B to 10:90 A/B over 3 mins followed by an additional 5 mins at 10:90 A/B. Thereafter, the gradient was changed from 10:90 AB to 82:18 AB over 3 mins. Each purified peptide sample was purged with N2 gas for 20 mins to remove the acetonitrile. The pH of the final solution was adjusted to 7.4 with 0.1 N NaOH and sterile saline for animal studies. In vitro serum stability of ^111In-DOTA-GGNle-CycMSHhex and ^111In-DOTA-GENle-CycMSHhex were determined by incubation in mouse serum at 37° C. for 24 h and monitored for degradation by RP-HPLC.

tumor uptake with NDP-MSH co-injection as percent of tumor uptake without (B16/F1 melanoma; 10 μg NDP-MSH, 2 h after dose administration): 4.2%
Kidneys uptake (B16/F1 melanoma; 0.5 h post-injection): 16.20±4.32 % ID/g
Tumor uptake (B16/F1 melanoma; 0.5 h post-injection): 24.94±4.58 % ID/g
Tumor uptake (B16/F1 melanoma; 2 h post-injection): 19.39±2.72 % ID/g
reduction of kidney uptake by L-lysine co-injection (B16/F1 melanoma; 2 h post-injection): 30%
renal uptake as percent of that of ^111In-DOTA-GlyGlu-CycMSH (B16/F1 melanoma; 2 h post-injection): 72.8%
tumor uptake, times that of ^111In-DOTA-GlyGlu-CycMSH (B16/F1 melanoma; 2 h post-injection): 1.86 times
Tumor uptake (B16/F1 melanoma; 4 h post-injection): 17.01±2.54 % ID/g
liver uptake as percent of that of ^99mTc(CO)3-pz-βAla-Nle-cyclo[Asp-His-D-Phe-Arg-Trp-Lys]-NH2 (B16/F1 melanoma; 4 h post-injection): 7.5%
renal uptake as percent of that of ^99mTc(CO)3-pz-βAla-Nle-cyclo[Asp-His-D-Phe-Arg-Trp-Lys]-NH2 (B16/F1 melanoma; 4 h post-injection): 31.1%
renal uptake as percent of that of ^111In-DOTA-GlyGlu-CycMSH (B16/F1 melanoma; 4 h post-injection): 82.4%
tumor uptake, times that of ^99mTc(CO)3-pz-βAla-Nle-cyclo[Asp-His-D-Phe-Arg-Trp-Lys]-NH2 (B16/F1 melanoma; 4 h post-injection): 1.5 times
Kidneys uptake (B16/F1 melanoma; 24 h post-injection): 9.31±0.91 % ID/g
Tumor uptake (B16/F1 melanoma; 24 h post-injection): 10.53±1.11 % ID/g
tumor activity at 2 h remaining in tumors at 24 h (B16/F1 melanoma; 24 h post-injection): 54.3%
urinary metabolites by HPLC [1]: remained intact
serum stability by RP-HPLC [2]: stable
Structure (SMILES): CCCC[C@H](NC(=O)CN1CCN(CC(=O)O)CCN(CC(=O)O)CCN(CC(=O)O)CC1)C(=O)N[C@H]1CC(=O)NCCCC[C@@H](C(N)=O)NC(=O)[C@H](Cc2c[nH]c3ccccc23)NC(=O)[C@H](CCCNC(=N)N)NC(=O)[C@@H](Cc2ccccc2)NC(=O)[C@H](Cc2c[nH]cn2)NC1=O [^111In-DOTA-Nle-CycMSHhex, metal not drawn]

— patent US9493537B2, “Compounds with reduced ring size for use in diagnosing and treating melanoma, including metastatic melanoma and methods related to same” (STC.UNM, priority 2009, dated 2016)
